From PMC5719457, “Pseudomonas aeruginosa zinc uptake in chelating environment is primarily mediated by the metallophore pseudopaline” (Scientific Reports, 2017)

Assays:
[1] = biological target: T1, PaCntL (Pseudomonas aeruginosa, UniProt A0A0H2ZHV3); assay: TLC with […]-SAM; HILIC/ESI-MS; assay type: biochemical; conditions: product yNA
T1 construct: gene cntL; full length, C-terminal His6 tag (pET22b+), E. coli BL21

[2] = biological target: T2, PaCntM (Pseudomonas aeruginosa, UniProt A0A0H2ZH12); assay: fluorescence resonance energy transfer titration (Trp to NAD(P)H); assay type: binding
T2 construct: gene cntM; full length, N-terminal His6 tag (TEV-cleavable, pET-TEV), E. coli BL21
T2 sequence (A0A0H2ZH12 whole entry): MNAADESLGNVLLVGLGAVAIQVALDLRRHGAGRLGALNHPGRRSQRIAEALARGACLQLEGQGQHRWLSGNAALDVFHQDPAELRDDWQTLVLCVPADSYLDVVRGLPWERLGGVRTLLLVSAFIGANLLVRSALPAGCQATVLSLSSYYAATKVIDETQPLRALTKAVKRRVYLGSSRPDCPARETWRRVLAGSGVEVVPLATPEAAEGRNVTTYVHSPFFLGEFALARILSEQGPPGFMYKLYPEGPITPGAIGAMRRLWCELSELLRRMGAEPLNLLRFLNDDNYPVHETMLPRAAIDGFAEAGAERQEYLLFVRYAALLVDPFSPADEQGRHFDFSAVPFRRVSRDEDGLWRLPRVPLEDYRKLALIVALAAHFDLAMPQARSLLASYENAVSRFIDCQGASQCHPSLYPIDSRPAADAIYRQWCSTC

T1 sequence (A0A0H2ZHV3 whole entry): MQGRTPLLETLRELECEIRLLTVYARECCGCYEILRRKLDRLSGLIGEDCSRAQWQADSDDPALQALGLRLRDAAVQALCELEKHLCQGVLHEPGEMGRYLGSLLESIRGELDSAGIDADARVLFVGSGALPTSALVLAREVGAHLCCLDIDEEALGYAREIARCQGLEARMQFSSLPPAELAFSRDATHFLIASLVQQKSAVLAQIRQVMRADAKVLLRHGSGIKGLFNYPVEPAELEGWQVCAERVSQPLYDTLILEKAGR

Compound: N[C@@H](Cc1cnc[nH]1)C(=O)O [L-histidine]
- TLC with [14C]-SAM; HILIC/ESI-MS ([1]; co-substrate SAM): Only the incubation with L-histidine led to a novel band

Compound: NC(=O)C1=CN([C@@H]2O[C@H](COP(=O)(O)OP(=O)(O)OC[C@H]3O[C@@H](n4cnc5c(N)ncnc54)[C@H](O)[C@@H]3O)[C@@H](O)[C@H]2O)C=CC1 [NADH]
- Kd [2]: 30 µM

Compound: C[S+](CC[C@H](N)C(=O)O)C[C@H]1O[C@@H](n2cnc3c(N)ncnc32)[C@H](O)[C@@H]1O (stereo partly drawn) [SAM]
- TLC with [14C]-SAM; HILIC/ESI-MS ([1]; co-substrate L-histidine, labelled compound (carboxyl-14C) in TLC): incubation of PaCntL with SAM and L-histidine led to the formation of the yNA
